Assay results published in patent publication US8603527B2, “Pharmaceutical formulations of a substituted diaminopurine” (Signal Pharmaceuticals, LLC, priority 2010, dated 2013).
Read-outs that look alike come from different tables or passages of the source.

How the values were obtained:
[1] = Pharmacokinetics (plasma and urine) of ascending multiple oral doses in healthy volunteers; type: in vivo, human; conditions: for Intra-subject CV % of AUC(0-τ) / Intra-subject CV % of Cmax: ANOVA, data from Days 10 and 14; for Vd/F / half-life / AUC(0-inf) / Cmax / concentration at 24 h / Tmax / AUC / CL renal / CL renal at 14 days: both sexes, human, oral; for Vd/F: read-out: Vz/F; for Cmax: read-out: Cmax; for concentration at 24 h: read-out: Ctrough; for AUC: τ = 24 hours (N = 8), read-out: AUC(0-τ); for CL renal / CL renal at 14 days: urine, read-out: CLR (renal clearance of drug)
Text: Subjects: Forty healthy male and female subjects between the ages of 20 and 50 were enrolled in the study. All subjects were in good health as determined by a medical history, physical examination, 12-lead ECG, serum biochemistry, hematology, urinalysis and virology. Subjects were not permitted to take any prescribed medication within 30 days or non-prescribed medication within 7 days of the first dose administration.
Study Design: This study was a randomized, double-blind, placebo-controlled, ascending-dose trial to evaluate the safety, tolerability and pharmacokinetics (PK) of multiple oral doses of Compound I. Subjects were enrolled into 1 of the 4 cohorts, 10 subjects per cohort (active:placebo=8:2). Subjects received a multiple oral dose of 25, 50, 100, or 200 mg unformulated Compound I in a capsule, or matching placebo, once daily (QD) for 14 days.
Assessments: Safety and tolerability were assessed by adverse event (AE) monitoring, clinical laboratory testing, vital sign measurement, 12-lead ECG measurement, concomitant medication assessment, and physical examination. Blood and urine samples were collected to assess the PK profile of Compound I and the S-cis isomer of Compound I. Blood samples (˜5 mL) for plasma PK analysis were collected in K2-EDTA vacutainer tubes to yield approximately 2 mL of plasma at each of the following time points: (i) Day 1: before dosing, and 0.25, 0.5, 1, 1.5, 2, 2.5, 3, 4, 6, 8, 10, 12, 16, and 24 hours after dosing; (ii) Day 3 to Day 9: before dosing; (iii) Day 10: before dosing, and 0.25, 0.5, 1, 1.5, 2, 2.5, 3, 4, 6, 8, 10, 12, and 16 hours after dosing; (iv) Day 11 to Day 13: before dosing; (v) Day 14: before dosing, and 0.25, 0.5, 1, 1.5, 2, 2.5, 3, 4, 6, 8, 10, 12, 16, 24, 48, 72, 96, 120, 144, and 168 hours after dosing. Urine samples for the PK analysis were collected as a single block at: (i) Day 1: before dosing (spot collection), 0 to 8, 8 to 16, and 16 to 24 hours after dosing; and (ii) Day 14: 0 to 8, 8 to 16, and 16 to 24 hours after dosing. Both plasma and urine concentrations of Compound I and its S-cis isomer were measured using validated liquid chromatography-tandem mass spectrometry (LC/MS/MS).
Data Analysis: Safety data were summarized using descriptive statistics by treatment. PK parameters for Compound I and its S-cis isomer were calculated using non-compartmental analysis using WinNonlin (Version 5.0.1 or greater; Pharsight Corporation, Mountain View, Calif.). Dose proportionality and dose independence were evaluated by visual inspection. Intra-subject variability was assessed using an ANOVA model using data from Days 10 and 14.

Aqueous solubility = type: physicochemical; conditions: aqueous medium
[2] = 25 mg QD, Day 1, urine (n = 8), geometric mean
[3] = 25 mg QD, Day 14, plasma (N = 8), geometric mean
[4] = 25 mg QD, Day 14, urine (n = 8), geometric mean
[5] = 50 mg QD, Day 1, urine (n = 8), geometric mean
[6] = 50 mg QD, Day 14, plasma (N = 8), geometric mean
[7] = 50 mg QD, Day 14, urine (n = 8), geometric mean
[8] = 100 mg QD, Day 1, urine (n = 8), geometric mean
[9] = 100 mg QD, Day 14, plasma (N = 8), geometric mean
[10] = 100 mg QD, Day 14, urine (n = 8), geometric mean
[11] = 200 mg QD, Day 1, urine (n = 8), geometric mean
[12] = 200 mg QD, Day 14, plasma (N = 8), geometric mean
[13] = 200 mg QD, Day 14, urine (n = 8), geometric mean
[14] = plasma, 25 mg, 25 mg QD, Day 1, plasma, healthy subjects (N = 8), geometric mean
[15] = plasma, 25 mg, 25 mg QD, Day 14, plasma, healthy subjects (N = 8), geometric mean
[16] = plasma, 50 mg, 50 mg QD, Day 1, plasma, healthy subjects (N = 8), geometric mean
[17] = plasma, 50 mg, 50 mg QD, Day 14, plasma, healthy subjects (N = 8), geometric mean
[18] = plasma, 100 mg, 100 mg QD, Day 1, plasma, healthy subjects (N = 8), geometric mean
[19] = plasma, 100 mg, 100 mg QD, Day 14, plasma, healthy subjects (N = 8), geometric mean
[20] = plasma, 200 mg, 200 mg QD, Day 1, plasma, healthy subjects (N = 8), geometric mean
[21] = plasma, 200 mg, 200 mg QD, Day 14, plasma, healthy subjects (N = 8), geometric mean

O[C@H]1CC[C@H](Nc2ncc3nc(Nc4c(F)cc(F)cc4F)n([C@H]4CCOC4)c3n2)CC1 [Compound I, 4-((9-((3S)-tetrahydro-3-furanyl)-8-((2,4,6-trifluorophenyl)amino)-9H-purin-2-yl)amino)-trans-cyclohexanol]
Ae (amount of drug excreted in urine) [1, 2]: 1.3 mg | fe (percentage of dose excreted in urine) [1, 2]: 5.2% | CL/F [1, 3]: 95 mL/min | RA (ratio of accumulation) [1, 3]: 1.9 | Ae (amount of drug excreted in urine) [1, 4]: 3.5 mg | fe (percentage of dose excreted in urine) [1, 4]: 14.0% | Intra-subject CV % of AUC(0-τ) ([1]; 25 mg QD): 7.0% | Intra-subject CV % of Cmax ([1]; 25 mg QD): 10.2% | Ae (amount of drug excreted in urine) [1, 5]: 3.0 mg | fe (percentage of dose excreted in urine) [1, 5]: 5.9% | CL/F [1, 6]: 85 mL/min | RA (ratio of accumulation) [1, 6]: 2.2 | Ae (amount of drug excreted in urine) [1, 7]: 6.9 mg | fe (percentage of dose excreted in urine) [1, 7]: 13.9% | Intra-subject CV % of AUC(0-τ) ([1]; 50 mg QD): 8.4% | Intra-subject CV % of Cmax ([1]; 50 mg QD): 5.7% | Ae (amount of drug excreted in urine) [1, 8]: 5.3 mg | fe (percentage of dose excreted in urine) [1, 8]: 5.3% | CL/F [1, 9]: 130 mL/min | RA (ratio of accumulation) [1, 9]: 1.8 | Ae (amount of drug excreted in urine) [1, 10]: 11.9 mg | fe (percentage of dose excreted in urine) [1, 10]: 11.9% | Intra-subject CV % of AUC(0-τ) ([1]; 100 mg QD): 15.7% | Intra-subject CV % of Cmax ([1]; 100 mg QD): 23.7% | Ae (amount of drug excreted in urine) [1, 11]: 5.0 mg | fe (percentage of dose excreted in urine) [1, 11]: 2.5% | CL/F [1, 12]: 146 mL/min | RA (ratio of accumulation) [1, 12]: 1.5 | Ae (amount of drug excreted in urine) [1, 13]: 11.7 mg | fe (percentage of dose excreted in urine) [1, 13]: 5.8% | Intra-subject CV % of AUC(0-τ) ([1]; 200 mg QD): 14.0% | Intra-subject CV % of Cmax ([1]; 200 mg QD): 18.3% | accumulation at steady state ([1]; Day 10 and Day 14, QD dosing): approximately 2 fold | intra-subject variability of AUCss,(0-τ) ([1]; Days 10 and 14): less than 20% | steady state reached (trough plasma concentrations) ([1]; QD dosing): 6 days | Vd/F [1, 3]: 256 L | half-life ([1]; 25 mg QD, Day 14, plasma (N = 8), geometric mean, read-out: t1/2 (converted)): 31 h | Vd/F [1, 6]: 193 L | half-life ([1]; 50 mg QD, Day 14, plasma (N = 8), geometric mean, read-out: t1/2 (converted)): 26 h | Vd/F [1, 9]: 338 L | half-life ([1]; 100 mg QD, Day 14, plasma (N = 8), geometric mean, read-out: t1/2 (converted)): 30 h | Vd/F [1, 12]: 328 L | half-life ([1]; 200 mg QD, Day 14, plasma (N = 8), geometric mean, read-out: t1/2 (converted)): 26 h | AUC(0-inf) ([1]; plasma, 25 mg, 25 mg QD, Day 1, plasma (N = 8), geometric mean): 4260 ng·h/mL | Cmax [1, 14]: 212 ng/mL | concentration at 24 h [1, 14]: 55 ng/mL | Tmax ([1]; plasma, 25 mg, 25 mg QD, Day 1, plasma, healthy subjects (N = 8), median, read-out: tmax): 2.3 h | AUC ([1]; plasma, 25 mg, 25 mg QD, Day 1, plasma, geometric mean): 2270 ng·h/mL | AUC(0-inf) ([1]; plasma, 25 mg, 25 mg QD, Day 14, plasma (N = 8), geometric mean): 10200 ng·h/mL | Cmax [1, 15]: 328 ng/mL | concentration at 24 h [1, 15]: 130 ng/mL | Tmax ([1]; plasma, 25 mg, 25 mg QD, Day 14, plasma, healthy subjects (N = 8), median, read-out: tmax): 2 h | AUC ([1]; plasma, 25 mg, 25 mg QD, Day 14, plasma, geometric mean): 4400 ng·h/mL | AUC(0-inf) ([1]; plasma, 50 mg, 50 mg QD, Day 1, plasma (N = 8), geometric mean): 7750 ng·h/mL | Cmax [1, 16]: 406 ng/mL | concentration at 24 h [1, 16]: 125 ng/mL | Tmax ([1]; plasma, 50 mg, 50 mg QD, Day 1, plasma, healthy subjects (N = 8), median, read-out: tmax): 2.3 h | AUC ([1]; plasma, 50 mg, 50 mg QD, Day 1, plasma, geometric mean): 4560 ng·h/mL | AUC(0-inf) ([1]; plasma, 50 mg, 50 mg QD, Day 14, plasma (N = 8), geometric mean): 21300 ng·h/mL | Cmax [1, 17]: 740 ng/mL | concentration at 24 h [1, 17]: 282 ng/mL | Tmax ([1]; plasma, 50 mg, 50 mg QD, Day 14, plasma, healthy subjects (N = 8), median, read-out: tmax): 2 h | AUC ([1]; plasma, 50 mg, 50 mg QD, Day 14, plasma, geometric mean): 9810 ng·h/mL | AUC(0-inf) ([1]; plasma, 100 mg, 100 mg QD, Day 1, plasma (N = 8), geometric mean): 12200 ng·h/mL | Cmax [1, 18]: 637 ng/mL | concentration at 24 h [1, 18]: 183 ng/mL | Tmax ([1]; plasma, 100 mg, 100 mg QD, Day 1, plasma, healthy subjects (N = 8), median, read-out: tmax): 2 h | AUC ([1]; plasma, 100 mg, 100 mg QD, Day 1, plasma, geometric mean): 7300 ng·h/mL | AUC(0-inf) ([1]; plasma, 100 mg, 100 mg QD, Day 14, plasma (N = 8), geometric mean): 31600 ng·h/mL | Cmax [1, 19]: 880 ng/mL | concentration at 24 h [1, 19]: 400 ng/mL | Tmax ([1]; plasma, 100 mg, 100 mg QD, Day 14, plasma, healthy subjects (N = 8), median, read-out: tmax): 1.8 h | AUC ([1]; plasma, 100 mg, 100 mg QD, Day 14, plasma, geometric mean): 12800 ng·h/mL | AUC(0-inf) ([1]; plasma, 200 mg, 200 mg QD, Day 1, plasma (N = 8), geometric mean): 27000 ng·h/mL | Cmax [1, 20]: 1440 ng/mL | concentration at 24 h [1, 20]: 375 ng/mL | Tmax ([1]; plasma, 200 mg, 200 mg QD, Day 1, plasma, healthy subjects (N = 8), median, read-out: tmax): 1.8 h | AUC ([1]; plasma, 200 mg, 200 mg QD, Day 1, plasma, geometric mean): 15100 ng·h/mL | AUC(0-inf) ([1]; plasma, 200 mg, 200 mg QD, Day 14, plasma (N = 8), geometric mean): 48400 ng·h/mL | Cmax [1, 21]: 1740 ng/mL | concentration at 24 h [1, 21]: 643 ng/mL | Tmax ([1]; plasma, 200 mg, 200 mg QD, Day 14, plasma, healthy subjects (N = 8), median, read-out: tmax): 1.8 h | AUC ([1]; plasma, 200 mg, 200 mg QD, Day 14, plasma, geometric mean): 22800 ng·h/mL | half-life ([1]; plasma, 25-200 mg QD for 14 days, read-out: mean terminal half-life (t1/2)): 25 to 31 h | Tmax ([1]; plasma, 25-200 mg QD for 14 days, read-out: median tmax): 1 to 2 h | CL renal ([1]; 25 mg, 25 mg QD, Day 1, urine (n = 8), geometric mean): 9.5 mL/min | CL renal at 14 days ([1]; 25 mg, 25 mg QD, Day 14, urine (n = 8), geometric mean): 13.3 mL/min | CL renal ([1]; 50 mg, 50 mg QD, Day 1, urine (n = 8), geometric mean): 10.9 mL/min | CL renal ([1]; 50 mg, 50 mg QD, Day 14, urine (n = 8), geometric mean): 11.8 mL/min | CL renal ([1]; 100 mg, 100 mg QD, Day 1, urine (n = 8), geometric mean): 12 mL/min | CL renal ([1]; 100 mg, 100 mg QD, Day 14, urine (n = 8), geometric mean): 15.4 mL/min | CL renal ([1]; 200 mg, 200 mg QD, Day 1, urine (n = 8), geometric mean): 5.5 mL/min | CL renal at 14 days ([1]; 200 mg, 200 mg QD, Day 14, urine (n = 8), geometric mean): 8.5 mL/min | solubility (Aqueous solubility): < 1000 µg/mL
